# Values joined by “and” are separate entries in the source; they are usually repeats but may differ in a detail not shown here. Equal values may be shown once.
# Legend:
# [1] = Maximum tolerated dose assessment after daily oral administration for 14 days in the pig; format: in vivo, pigs (large white×landrace×pietrain)
# Text: The aims of this study were to establish a MTD and the kinetics of sodium meta-arsenite after repeated administration to pigs.
# Sodium meta-arsenite was formulated using enteric-coated capsules (size no. 2) for a toxicology study in pigs. Cellulose-based clear capsules contained 1) sodium meta-arsenite as an active ingredient, 2) microcrystalline cellulose and colloidal silicon dioxide as excipients. The coating material of the capsules comprised of Eudragit L 12.5 (acrylic polymer) and Macrogol 6000 (polyethylene glycol as softener). It is resistant to gastric fluid at least for 1 hour.
# The oral route was selected, as it is the intended route of administration in human. Based on previous studies, the following doses were selected: 7.5 and 10 mg/pig (equivalent to 24.5 and 32.5 mg/man). Capsules (enteric coated, size no. 2) of sodium meta-arsenite in concentrations of 7.5 and 10 mg/capsule, formulations, were stored in a refrigerator in the dark. Each dose was administered orally by gavages to groups of 12 male growing pigs (large white×landrace×pietrain) for 14 days, followed by a 14-day recovery period. The mean weight of the pigs was 16.8±2.3 kg at the beginning of the study.
# Mortality and viability were checked twice daily, clinical examinations were performed daily and body weight was recorded twice a week. Scheduled termination was performed on day 29 (after 14 days of recovery). Macroscopic examination was performed on all animals and samples from brain (cerebellum, mid brain, cortex), heart, kidney, liver, lung, spleen, stomach wall, small intestine and large intestine taken for histopathology.
# Blood samples (10 ml) of both dose groups were collected for hematology and biochemistry analysis on days −2, −1, 0, 7, 14, 21, 28. The samples collected during the treatment period were taken prior to the administration of the next drug. […]
# [2] = test system: panel of forty-one (41) human cancer cell lines; experiment: Cytotoxic activity, panel of forty-one (41) human cancer cell lines
# Text: In a next study, the cytotoxic activity of sodium meta-arsenite was head-to-head compared with arsenic trioxide in panels loaded with 41 cancer cell lines from ten human cancers.
# MEXF 462NL = experiment: Cytotoxic activity, propidium iodide fluorescence assay, panel of 9 human cancer cell lines; format: cell-based; conditions: MEXF 462NL melanoma, 3-7 days
# Method: (§1) Three kinds of stock solutions were prepared for in vitro cytotoxic activity test. The first solution is DMSO (dimethyl sulfoxide) mixed with sodium meta-arsenite. […] The third solution is DMSO mixed with arsenic acid sodium salt. Those three solutions were diluted with culture medium (RPMI 1640). The final concentrations of DMSO in those three solutions are less than 0.3 vol %.
# (§2) Nine kinds of human cancer cell lines out of six kinds of cancers were grown at 37° C. under a controlled atmosphere of 95% air and 5% CO2. The cells were grown on monolayer cultures of RPMI 1640 cell culture medium supplemented with 10% fetal calf serum.
# (§3) The grown cells were harvested from exponential phase cultures by trypsinization and counted. The counted cells were placed in a plate, which has ninety six wells. Each well on the plate is in a shape of a flat-bottomed microtitre. Density of the cells in a suspension was adjusted depending on the cell line. The suspension was prepared by diluting the grown cells with the culture medium (RPMI 1640). Concentration of the cells were varied from 5×10^4 to 1×10^5 viable cells/ml. 100 μl of the suspension was placed in each well of the plate. […] Then add 50 μl of culture medium (RPMI 1640) only to 6 wells, 50 μl/well, among the 96 wells of one plate. It is called controlled. One well is filled with culture medium plus 5-FU. And another 50 μl of culture medium plus one of the stock solutions were added to each of the left 89 wells to allow cells to resume exponential growth.
# (§4) The cytotoxic activity test was executed with three plates simultaneously to check reliability of the data obtained. The three plates contain the same samples of cancer cells. The three plates were then incubated for 3-7 days under the same controlled atmosphere and cell proliferation was assessed with a modified propodium iodide fluorescence assay. After thawing of the plates, fluorescence was measured using a Millipore Cytofluor 2350-microplate reader (excitation 530 nm emission 620 nm) in order to quantify the total cell number. The assay included untreated and positive controls containing 5-FU.
# (§5) Growth inhibition is defined as (numbers of cancer cell alive) treated (T)/(number of cells) control (C)×100% (T/C %).
# MEXF 514L = experiment: as above; format: cell-based; conditions: MEXF 514L melanoma, 3-7 days
# Method: as §1, §2, §3, §4, §5
# HT29 = experiment: as above; format: cell-based; conditions: HT29 colon cancer, 3-7 days
# Method: as §1, §2, §3, §4, §5
# LXFL 529L = experiment: as above; format: cell-based; conditions: LXFL 529L NSCLC, 3-7 days
# Method: as §1, §2, §3, §4, §5
# CCRF-CEM = experiment: as above; format: cell-based; conditions: CCRF-CEM leukemia, 3-7 days
# Method: as §1, §2, §3, §4, §5
# UXF 1138 = experiment: as above; format: cell-based; conditions: UXF 1138 uterine body, 3-7 days
# Method: as §1, §2, §3, §4, §5
# [3] = panel of 41 human cancer cell lines
smiles,measurement,setting,value
"O=[As][O-].[Na+] [Sodium meta-arsenite, sodium meta-arsenite]",Hematological and biochemical parameters,"[1]; 7.5 and 10 mg/pig, 14 days",No (statistical) significant differences
same,Mortality,"[1]; 7.5 and 10 mg/pig, enteric-coated capsules, 14 days + 14-day recovery",No pigs died or were killed in extremis
same,Drug related side effects,[1]; pigs at the doses of 7.5 and 10 mg/day,did not induce any drug related side effects
same,activity in panel of 41,[2]; 0.01 μg/ml and 0.001 μg/ml,showed no activity
same,"cancer cell lines that responded, out of forty one (41)",[2]; 0.1 μg/ml,16
same,"cancer cell lines that responded, percent of 41","[2]; 1 μg/ml, more than 70% growth inhibition",80%
same,"cancer cell lines in which active, percent of 41",[2]; 10 μg/ml,100%
same,"selectivity (individual IC70<½ mean IC70), fraction of cell lines",[2]; breast (mammary) cancer cell lines,¾
same,fold more potent than arsenic trioxide,[2]; conclusion of in vitro data,at least 10 fold
same,"selectivity (individual IC70<½ mean IC70), fraction of cell lines",[2]; leukemia cell lines,¾
same,"selectivity (individual IC70<½ mean IC70), fraction of cell lines",[2]; melanoma cell lines,4/7
same,Mean IC50,[2]; [3],0.129 µg/mL
same,Mean IC70,[2]; [3],0.329 μg/ml and 2.53 μM
same,Mean IC90,[2]; [3],1.691 µg/mL
same,Mean IC70,"[2]; panel of 41 human cancer cell lines, listed as sodium meta-arsenite",0.329 μg/ml and 2.53 μM
same,IC50,"[2]; read-out: Mean IC50, panel of 41 human cancer cell lines",0.99 µM
same,IC90,"[2]; read-out: Mean IC90, panel of 41 human cancer cell lines",13 µM
same,T/C % at drug concentration,MEXF 462NL; 1 μg/ml,112%
same,T/C % at drug concentration,MEXF 462NL; 3 μg/ml,120%
same,T/C % at drug concentration,MEXF 462NL; 10 μg/ml,101%
same,T/C % at drug concentration,MEXF 462NL; 30 μg/ml,91%
same,T/C % at drug concentration,MEXF 462NL; 100 μg/ml,15%
same,T/C % at drug concentration,MEXF 514L; 1 μg/ml,120%
same,T/C % at drug concentration,MEXF 514L; 3 μg/ml,95%
same,T/C % at drug concentration,MEXF 514L; 10 μg/ml,98%
same,T/C % at drug concentration,MEXF 514L; 30 μg/ml,70%
same,T/C % at drug concentration,MEXF 514L; 100 μg/ml,21%
same,T/C % at drug concentration,HT29; 1 μg/ml,91%
same,T/C % at drug concentration,HT29; 3 μg/ml,60%
same,T/C % at drug concentration,HT29; 10 μg/ml,40%
same,T/C % at drug concentration,HT29; 30 μg/ml,22%
same,T/C % at drug concentration,HT29; 100 μg/ml,14%
same,T/C % at drug concentration,LXFL 529L; 1 μg/ml,79%
same,T/C % at drug concentration,LXFL 529L; 3 μg/ml,61%
same,T/C % at drug concentration,LXFL 529L; 10 μg/ml,21%
same,T/C % at drug concentration,LXFL 529L; 30 μg/ml,7%
same,T/C % at drug concentration,LXFL 529L; 100 μg/ml,4%
same,T/C % at drug concentration,CCRF-CEM; 1 μg/ml,48%
same,T/C % at drug concentration,CCRF-CEM; 10 μg/ml,43%
same,T/C % at drug concentration,CCRF-CEM; 100 μg/ml,29%
same,T/C % at drug concentration,UXF 1138; 1 μg/ml,107%
same,T/C % at drug concentration,UXF 1138; 3 μg/ml,114%
same,T/C % at drug concentration,UXF 1138; 10 μg/ml,103%
same,T/C % at drug concentration,UXF 1138; 30 μg/ml,95%
same,T/C % at drug concentration,UXF 1138; 100 μg/ml,30%

# Source: US20090061022A1, “Pharmaceutical composition comprising arsenite for the treatment of malignancy” (priority 2004, published 2009)
